Laboratory results: paper PMC4769088, “Antifungal Activity and Action Mechanism of Histatin 5-Halocidin Hybrid Peptides against Candida ssp” (PLoS ONE, 2016)
Read-outs that look alike come from different tables or passages of the source. Where a SMILES comes first, the peptide text is derived from it. Bridges are numbered along the chain shown (N, C = ends). Roman numbers before positions name the chains, in order. Where no end group is shown, it is not given here.

Legend:
[1] = tested on: C. guilliermondi CCARM 14018; assay type: cell-based
Description: (§1) To determine the candidacidal activity of the peptides, we used Candida strains obtained from the Culture collection of antimicrobial resistant microbes at Seoul Women’s University in Korea. These included three Candida albicans (CCARM 14020, 14021, 14022), Candida guillermondi and Candida tropicalis. In addition, Candida albicans SC5413 was kindly provided by Dr Jeong-Yoon Kim at the Department of Microbiology & Molecular Biology, Chungnam University, Korea. Yeast were cultured overnight at 30°C in 10 ml of yeast extract-peptone-dextrose (YPD) broth (Qbiogene), then diluted in 10 ml of YPD broth to OD600 = 0.2 and grown for an additional 4 h with shaking at 30°C until OD600 = 0.8 in order to obtain mid-log phase cultures. The peptides (Hst 5, P113, HHP1, HHP2, PH1, PH2, di-PH1, di-PH2, WP1, di-WP2, di-15Hc and di-18Hc) in this study were synthesized by using standard solid-phase synthesis protocols and were purified by reversed-phase high-performance liquid chromatography at Anygen Inc. (Korea). FITC-labeled peptides (F-Hst5, F-P113, F-HHP1, F-di-PH2, F-di-WP2 and F-di-18Hc) were also synthesized by 6-aminohexnoic acid linker at Anygen (Korea) for confocal experiments.
(§2) The candidacidal activities of the peptides were tested by using standard microdilution plate assays, radial diffusion assays and broth dilution assay slightly modified from the procedure recommended by the National Committee for Clinical Laboratory Standards. For the candidacidal assays, C. albicans cells were grown in YPD medium and washed twice with 10 mM sodium phosphate buffer (NaPB; Na2HPO4, NaH2PO4, pH 7.4). The cells (1 x 10^6) were then mixed with different concentrations of peptides and incubated at 30°C with constant shaking for 60 min. For energy depletion experiments, cells were pre-incubated with 10 mM NaPB containing 5 mM NaN3 at 30°C for 60 min before the addition of peptides. The cell suspensions were diluted in 10 mM NaPB and aliquots of 500 cells were spread onto YPD agar plates then incubated for 24 h at 30°C to visualize the surviving colonies. Cell survival was expressed as a percentage of that for the control, and the loss of viability was calculated as [1 x (number of colonies from peptide-treated cells/number of colonies from control cells)] x 100. Candidacidal assays were performed in triplicate. For the radial diffusion assay, C. albicans cells were grown in YPD medium overnight and washed twice with 10 mM NaPB. Washed yeast-phase C. albicans cells (1 x 10^6 CFU) were trapped in thin underlay gels containing 9 mM sodium phosphate, 1 mM sodium citrate buffer, 1% (wt/vol) agarose (A6013; Sigma), and 0.3 mg of Sabouraud dextrose broth (Difco)/ml. After incubation at 37°C for 3 h, a 10 ml overlay gel of 1% agarose and 6% Sabouraud dextrose broth was poured on the underlay gel and then the plates were incubated overnight at 37°C. The clear-zone diameters were measured to the nearest 0.1 mm and graphed against the peptide concentration. Zone diameters were expressed in units (0.1 mm = 1 unit). For the broth dilution assay, the Candida strains were cultured in LYM broth for 18 h at 30°C. The numbers of yeasts were counted using a hemocytometer. Stock peptide solutions were prepared to a concentration of 320 μg/ml in distilled water, and were then serially diluted twofold, to 5 μg/ml. 100 μl aliquots of the diluted culture media containing candida cells (1 x 10^3) were dispensed into the wells of 96-well polypropylene microtiter plates (Costar 3879, Corning, NY), to which peptide solution (11 μl) was then added. In the experiments conducted to assess the candidacidal activity of peptides in the presence of salt, we used LYM supplemented with 150 mM NaCl for the culture medium, which was mixed with the peptide solution. The antifungal activities were evaluated after 24 h of incubation at 30°C by the observation of visible turbidity the wells. […]

[2] = tested on: C. guilliermondi CCARM 14019; assay type: cell-based
Description: as §1, §2

[3] = CD spectra, secondary structure analysis; assay type: physicochemical; conditions: solvent Laminarin (20 mg/ml in buffer), 200 μg/ml peptide
Candida cells = test: ROS production (DCFH-DA fluorometric assay); assay type: cell-based, Candida albicans; conditions: 32 μg/ml peptide, 120 min, 10 μM DCFH-DA, ex 485 / em 530 nm
Description: The amount of ROS produced by Candida cells treated with peptides was measured by a fluorometric assay with DCFHDA as described earlier. Briefly, the cells were adjusted to an OD600 of 1 in 10 ml of NaPB and centrifuged at 5000 ×g for 10 min. The cell pellet was then resuspended in NaPB and treated with peptides alone or with ascorbic acid. After the addition of 10 μM 2`,7`dichlorofluorescein diacetate (DCFH-DA), the fluorescence intensity of the induced ROS production was recorded every 10 min at excitation and emission wavelengths of 485 nm and 530 nm, respectively, in a Perkin Elmer 2030 Reader (Victor X3).  Fig 7 The effect of peptides on ROS generation. Time-dependency of DCF fluorescence as a measure of ROS generation (A) and killing activity (B) were determined in Candida cells treated with peptides (32 μg/ml) or peptides + Ascorbic acid (200 μg/ml) by Perkin Elmer 2030 reader (VictorX 3) and colony count assay, respectively. The fluorescence obtained with the cells treated with 10 mM of H2O2 served as positive control and the cells without peptide served as negative control. The fluorescent intensity of DCF was recorded every 10 min for 120 min at excitation and emission wavelengths of 485 and 530 nm, respectively.

[4] = NaCl 150 mM, LYM supplemented with 150 mM NaCl, 24 h at 30°C

C[C@H](NC(=O)[C@H](Cc1c[nH]cn1)NC(=O)[C@H](CO)NC(=O)[C@@H](N)CC(=O)O)C(=O)N[C@@H](CCCCN)C(=O)N[C@@H](CCCNC(=N)N)C(=O)N[C@@H](Cc1c[nH]cn1)C(=O)N[C@@H](Cc1c[nH]cn1)C(=O)NCC(=O)N[C@@H](Cc1ccc(O)cc1)C(=O)N[C@@H](CCCCN)C(=O)N[C@@H](CCCNC(=N)N)C(=O)N[C@@H](CCCCN)C(=O)N[C@@H](Cc1ccccc1)C(=O)N[C@@H](Cc1c[nH]cn1)C(=O)N[C@@H](CCC(=O)O)C(=O)N[C@@H](CCCCN)C(=O)N[C@@H](Cc1c[nH]cn1)C(=O)N[C@@H](Cc1c[nH]cn1)C(=O)N[C@@H](CO)C(=O)N[C@@H](Cc1c[nH]cn1)C(=O)N[C@@H](CCCNC(=N)N)C(=O)NCC(=O)N[C@@H](Cc1ccc(O)cc1)C(=O)O [Hst 5, Histatin 5]
MICs ([1]; CCARM 14018, 24 h): 1 to 2 µg/mL | MICs [1, 4]: 32< μg/ml | MICs ([2]; CCARM 14019, 24 h): 2 to 4 µg/mL | MICs [2, 4]: 32< μg/ml | Secondary structure (%) Beta [3]: 21.7% | Secondary structure (%) Helix [3]: 0.0% | Secondary structure (%) Random [3]: 62% | Secondary structure (%) Turn [3]: 16.3% | DCF fluorescence intensity (ROS generation) (Candida cells): constant increase in fluorescence intensity

CC(C)C[C@H](NC(=O)CNC(=O)[C@H](Cc1c[nH]cn1)NC(=O)[C@H](Cc1c[nH]cn1)NC(=O)[C@H](CC(C)C)NC(=O)[C@H](CC(C)C)NC(=O)[C@H](C)NC(=O)[C@H](CC(N)=O)NC(=O)[C@H](CC(C)C)NC(=O)[C@@H](N)Cc1c[nH]c2ccccc12)C(=O)N[C@@H](CC(N)=O)C(=O)N[C@@H](CSSC[C@H](NC(=O)[C@H](CC(N)=O)NC(=O)[C@H](CC(C)C)NC(=O)CNC(=O)[C@H](Cc1c[nH]cn1)NC(=O)[C@H](Cc1c[nH]cn1)NC(=O)[C@H](CC(C)C)NC(=O)[C@H](CC(C)C)NC(=O)[C@H](C)NC(=O)[C@H](CC(N)=O)NC(=O)[C@H](CC(C)C)NC(=O)[C@@H](N)Cc1c[nH]c2ccccc12)C(=O)N[C@@H](C)C(=O)N[C@@H](CCCCN)C(=O)NCC(=O)N[C@H](C(=O)N[C@@H](CC(C)C)C(=O)N[C@@H](C)C(N)=O)C(C)C)C(=O)N[C@@H](C)C(=O)N[C@@H](CCCCN)C(=O)NCC(=O)N[C@H](C(=O)N[C@@H](CC(C)C)C(=O)N[C@@H](C)C(N)=O)C(C)C [di-18Hc, reference compound] (I: H-WLNALLHHGLNCAKGVLA-NH2 / II: H-WLNALLHHGLNCAKGVLA-NH2; disulfide I:12-II:12 (inferred); N-terminus assumed)
MICs ([2]; CCARM 14019, 24 h): 4 to 8 µg/mL | Secondary structure (%) Beta [3]: 29.7% | Secondary structure (%) Helix [3]: 29.2% | Secondary structure (%) Random [3]: 30.3% | Secondary structure (%) Turn [3]: 10.8% | DCF fluorescence intensity (ROS generation) (Candida cells): little fluorescence

CC(C)C[C@H](NC(=O)CNC(=O)[C@H](Cc1c[nH]cn1)NC(=O)[C@H](Cc1c[nH]cn1)NC(=O)[C@H](CCCNC(=N)N)NC(=O)[C@H](CCCCN)NC(=O)[C@H](C)N)C(=O)N[C@@H](CC(N)=O)C(=O)N[C@@H](CSSC[C@H](NC(=O)[C@H](CC(N)=O)NC(=O)[C@H](CC(C)C)NC(=O)CNC(=O)[C@H](Cc1c[nH]cn1)NC(=O)[C@H](Cc1c[nH]cn1)NC(=O)[C@H](CCCNC(=N)N)NC(=O)[C@H](CCCCN)NC(=O)[C@H](C)N)C(=O)N[C@@H](C)C(=O)N[C@@H](CCCCN)C(=O)N[C@@H](Cc1ccccc1)C(=O)N[C@@H](Cc1c[nH]cn1)C(N)=O)C(=O)N[C@@H](C)C(=O)N[C@@H](CCCCN)C(=O)N[C@@H](Cc1ccccc1)C(=O)N[C@@H](Cc1c[nH]cn1)C(N)=O [di-PH2] (I: H-AKRHHGLNCAKFH-NH2 / II: H-AKRHHGLNCAKFH-NH2; disulfide I:9-II:9 (inferred); N-terminus assumed)
MICs [1, 4]: 32< μg/ml | Secondary structure (%) Beta [3]: 0.0% | Secondary structure (%) Helix [3]: 20.5% | Secondary structure (%) Random [3]: 61.1% | Secondary structure (%) Turn [3]: 18.4% | DCF fluorescence intensity (ROS generation) (Candida cells): constant increase in fluorescence intensity

CC(C)C[C@H](NC(=O)[C@@H](N)Cc1c[nH]c2ccccc12)C(=O)N[C@@H](CC(N)=O)C(=O)N[C@@H](C)C(=O)N[C@@H](CCCCN)C(=O)N[C@@H](CCCNC(=N)N)C(=O)N[C@@H](Cc1c[nH]cn1)C(=O)N[C@@H](Cc1c[nH]cn1)C(=O)NCC(=O)N[C@@H](Cc1ccc(O)cc1)C(=O)N[C@@H](CCCCN)C(=O)N[C@@H](CSSC[C@H](NC(=O)[C@H](CCCCN)NC(=O)[C@H](Cc1ccc(O)cc1)NC(=O)CNC(=O)[C@H](Cc1c[nH]cn1)NC(=O)[C@H](Cc1c[nH]cn1)NC(=O)[C@H](CCCNC(=N)N)NC(=O)[C@H](CCCCN)NC(=O)[C@H](C)NC(=O)[C@H](CC(N)=O)NC(=O)[C@H](CC(C)C)NC(=O)[C@@H](N)Cc1c[nH]c2ccccc12)C(=O)N[C@@H](CCCCN)C(=O)N[C@@H](Cc1ccccc1)C(=O)N[C@@H](Cc1c[nH]cn1)C(N)=O)C(=O)N[C@@H](CCCCN)C(=O)N[C@@H](Cc1ccccc1)C(=O)N[C@@H](Cc1c[nH]cn1)C(N)=O [di-WP2] (I: H-WLNAKRHHGYKCKFH-NH2 / II: H-WLNAKRHHGYKCKFH-NH2; disulfide I:12-II:12 (inferred); N-terminus assumed)
MICs ([1]; CCARM 14018, 24 h): 2 to 4 µg/mL | MICs ([2]; CCARM 14019, 24 h): 4 to 8 µg/mL | Secondary structure (%) Beta [3]: 24.5% | Secondary structure (%) Helix [3]: 0.0% | Secondary structure (%) Random [3]: 54.7% | Secondary structure (%) Turn [3]: 20.8% | DCF fluorescence intensity (ROS generation) (Candida cells): little fluorescence

AKRHHGYKRKFH-NH2 [P113]
MICs ([1]; CCARM 14018, 24 h): 0.5 to 1 µg/mL | MICs [1, 4]: 32< μg/ml | MICs ([2]; CCARM 14019, 24 h): 0.5 to 1 µg/mL | MICs [2, 4]: 32< μg/ml | Secondary structure (%) Beta [3]: 0.2% | Secondary structure (%) Helix [3]: 2.8% | Secondary structure (%) Random [3]: 72.2% | Secondary structure (%) Turn [3]: 24.7% | DCF fluorescence intensity (ROS generation) (Candida cells): constant increase in fluorescence intensity
